Data on five compounds can be found in US20040229867A1, “Treatment of gastrointestinal dysfunction and related stress with an enantiomerically-pure (R) 2,3-benzodiazepine” (priority 2003, published 2004).

Assay [1] concerns stress-induced ulcer formation. Kind of assay: Water immersion stress-induced ulcers test. The assay is classed as in vivo, rat. The conditions noted are these: for Score for the Presence of Ulcers Mean ± SEM: score 0-4; for Ulceration Index: ulcer score x percentage of stomachs showing ulcers; for effect on ulcer score: text summary of Table 4.
Assay [2] has as its system abdominal contractions induced by colonic distension. Kind of assay: Visceral hypersensitivity, pain and bloating test (colonic distension after 1% acetic acid). The assay is classed as in vivo, rat.
Assay [3] relates to dextran sulfate sodium-induced colitis. Kind of assay: Dextran sulfate sodium-induced colitis. The note with it: DSS 5% solution in tap water. Type of assay: in vivo. From the text: Another gastrointestinal disorder model tested was the dextran sulfate sodium-induced colitis. In this model of colitis, an acute inflammation of the colon is produced by administration of dextran sulfate sodium (DSS) as a 5% solution in tap water. This colitis is characterized by histological events and an influx of neutrophils, macrophages and mediators of inflammation similar to those observed with human inflammatory bowel diseases.

For assay [4], the system named is gastrointestinal propulsive motility. Kind of assay: Charcoal meal test (basal gastrointestinal propulsive motility). Type of assay: in vivo, rat. The note with it: for % Inhibition: numbers in parentheses indicate % increase; for effect on charcoal meal transit: R-tofisopam at the highest dose tested, loperamide positive control.
For assay [5], the system named is colonic propulsive motility. Kind of assay: Glass bead test (stimulated colonic propulsion). Type of assay: in vivo, mouse. The note with it: for Expulsion Time Mean ± SEM: 30 minutes prior to bead insertion, cutoff 30 minutes, in min. The protocol:
In the test, usually performed in mice, a 3-mm glass bead is inserted through the anus into the distal colon (using a glass rod) to a depth of 2 cm. The time to expel the glass bead is then measured; normally, the glass bead is expelled in approximately 10 minutes. This model is especially sensitive to compounds with inhibitory effects on stretch-stimulated propulsive motor activity; as such, it is often used as an animal model for IBS. A test compound that inhibits stretch-stimulated-colonic propulsive motility, may be used to treat gastrointestinal dysfunction, including IBS. […] The glass bead test is commonly used to evaluate the ability of compounds to affect stimulated colonic propulsion. In the test, usually performed in mice, a 3-mm glass bead is inserted through the anus into the distal colon (using a glass rod) to a depth of 2 cm. The time to expel the glass bead is then measured; normally, the glass bead is expelled in approximately 10 minutes. This model is especially sensitive to compounds with inhibitory effects on stretch-stimulated propulsive motor activity; as such, it is often used as an animal model for IBS. In each study, RS— and R-tofisopam were evaluated for their ability to increase or decrease the time for expulsion of the glass bead.

In a further assay the test system is stress-induced ulcers. The conditions noted are these: pre-treatment 30 or 100 mg/kg PO; cited from earlier work.
For the next assay, the system named is gastric function. The note with it: cited from earlier work.
Assay [6] deals with hydrochloric acid-induced, alkali-induced and cauterization-induced ulcers. The conditions noted are these: in vivo; cited from earlier work.
In assay [7] the test system is dextran sulfate sodium-induced colitis. The note with it: in vivo; cited from earlier work.
Where [8] appears, read: 8 mg/kg IP 30 minutes prior to water immersion.
Where [9] appears, read: first experiment, 64 mg/kg IP, 30 minutes prior to charcoal meal.

The structures appear in SMILES notation. Where only a bound is given, the exact number is not on record here.

Turning to `CN1C(=O)CC(=O)N(c2ccccc2)c2cc(Cl)ccc21` [Clobazam, clobazam], in assay [1] (16 mg/kg IP), the “% of Stomachs Showing Ulcers” value is 100%, the “Score for the Presence of Ulcers Mean ± SEM” value (“Score … of Ulcers Mean ± SEM” for short) came out at 3.6 ± 0.2 and the “Ulceration Index” value is recorded as 363. Also, in [1] (32 mg/kg IP), the “% of Stomachs Showing Ulcers” value stood at 75%, the “Score … of Ulcers Mean ± SEM” value turned out to be 2.6 ± 0.5 and the “Ulceration Index” value is 197. The “effect on ulcer score” value in [1] is recorded as “reduced the ulcer score slightly, but this effect was not statistically significant”.
Take `CC[C@H]1C(C)=NN=C(c2ccc(OC)c(OC)c2)c2cc(OC)c(OC)cc21` [R-tofisopam, (R)-1-(3,4-dimethoxyphenyl)-4-methyl-5-ethyl-7,8-dimethoxy-5H-2,3-benzodiazepine]: in [2] (32 mg/kg p.o.), the “decrease of abdominal cramps versus vehicle control” value was found to be 49%. In addition, the “number of abdominal cramps” value in [2] (32 mg/kg p.o., vehicle control 18.8 cramps) is recorded as 9.5±1.7 cramps. In addition, the “effect in DSS colitis model compared with racemic tofisopam” value in assay [3] is “substantially greater effect”. For the same compound, the “% of Stomachs Showing Ulcers” value in assay [1] (8 mg/kg IP) is listed as 100%; in assay [1] (16 mg/kg IP) it was 88%; in assay [1] (32 mg/kg IP), 88%; in assay [1] (64 mg/kg IP), 29%; in [1] (128 mg/kg IP), 38%. Moreover, the “Score … of Ulcers Mean ± SEM” value in assay [1] (setting [8]) is 3.6 ± 0.3; in assay [1] (16 mg/kg IP), 3.1 ± 0.5; in assay [1] (32 mg/kg IP) it was 3.1 ± 0.5; in assay [1] (64 mg/kg IP), 1.7 ± 0.6; in [1] (128 mg/kg IP), 1.4 ± 0.2. The “Ulceration Index” value in [1] (8 mg/kg IP) is 363; in [1] (16 mg/kg IP) it was 273; in assay [1] (32 mg/kg IP), 273; in assay [1] (64 mg/kg IP), 49; in assay [1] (128 mg/kg IP), 52. Also, the “effect on ulcer score” value in assay [1] is reported as “significantly reduced the ulcer score”. Also, the “% Intestine Traversed Mean ± SEM” value in assay [4] (first experiment, 16 mg/kg IP) is 82.8 ± 3.1%; in assay [4] (first experiment, 32 mg/kg IP), 85.4 ± 2.9%; in [4] (setting [9]) it was 72.9 ± 2.9 %; in assay [4] (second experiment, 4 mg/kg IP), 71.72 ± 3.2%; in [4] (second experiment, 8 mg/kg IP) it was 75.2 ± 4.1%; in [4] (second experiment, 16 mg/kg IP), 65.7 ± 3.0%. The “% Intestine Traversed Mean ± SEM” value in assay [4] (second experiment, 32 mg/kg IP) came to 59.5 ± 3.2 %. The “% Inhibition” value is 10.6% in [4] (first experiment, 64 mg/kg IP); 4.1% in assay [4] (second experiment, 4 mg/kg IP); 12.1% in assay [4] (second experiment, 16 mg/kg IP); 20.3% in assay [4] (second experiment, 32 mg/kg IP); 100% in [5] (16 mg/kg IP); 99% in assay [5] (32 mg/kg IP). Besides, the “% Inhibition” value in assay [5] (64 mg/kg IP) was determined as 90%. Besides, in assay [4] (second experiment), the “effect on charcoal meal transit” value is recorded as “only a slight inhibition”. For the same compound, the “Expulsion Time Mean ± SEM” value in assay [5] (16 mg/kg IP) is recorded as 30.0 ± 0.0; in assay [5] (32 mg/kg IP) it was 29.7 ± 0.3; in assay [5] (64 mg/kg IP), 28.0 ± 1.1. Further, in assay [5] (text summary of Table 1, 16-64 mg/kg IP), the “effect on colonic expulsion” value was “significantly prolonged (i.e., slowed) colonic expulsion”.
As to `CN(C)C(=O)C(CCN1CCC(O)(c2ccc(Cl)cc2)CC1)(c1ccccc1)c1ccccc1` [Loperamide, loperamide], in [4] (second experiment, 16 mg/kg IP), the “% Intestine Traversed Mean ± SEM” value worked out at 28.1 ± 2.2 % and the “% Inhibition” value was 62.5%. The “effect on charcoal meal transit” value in assay [4] (second experiment) is “considerable slowing”.
Regarding `CCC1C(C)=NN=C(c2ccc(OC)c(OC)c2)c2cc(OC)c(OC)cc21` (racemic) [RS-tofisopam, tofisopam], the “effect on number of abdominal contractions versus vehicle control” value in [2] (32 mg/kg) is listed as “did not significantly modify”. For the same compound, the “reduction of number of stress-induced ulcers and total area of ulceration” value in the assay with stress-induced ulcers is at most 90%. For the same compound, the “effect on basal gastric acid output and mucosal blood flow” value with gastric function (intracerebroventricular injection 50 or 100 μg) was “increased both basal gastric acid output and mucosal blood flow”. In the assay with gastric function (intravenous injection 10 mg/kg), the “effect on basal gastric acid output” value was “did not change basal gastric acid output”. Besides, the “effect on cauterization-induced ulcers” value in [6] is “promoted the healing”. In addition, the “effect on hydrochloric acid-induced and alkali-induced ulcers” value in assay [6] is listed as “suppressed the development”. Besides, the “% of Stomachs Showing Ulcers” value in [1] (8 mg/kg IP) is reported as 100%; in assay [1] (16 mg/kg IP), 100%; in [1] (32 mg/kg IP), 100%; in assay [1] (64 mg/kg IP), 100%; in assay [1] (128 mg/kg IP), 75%. Moreover, the “Score … of Ulcers Mean ± SEM” value in [1] (setting [8]) is 3.4 ± 0.3; in assay [1] (16 mg/kg IP) it was 3.4 ± 0.3; in [1] (32 mg/kg IP) it was 3.5 ± 0.3; in [1] (64 mg/kg IP), 3.1 ± 0.3; in assay [1] (128 mg/kg IP) it was 2.4 ± 0.4. Besides, the “Ulceration Index” value amounted to 338 in assay [1] (8 mg/kg IP); 338 in assay [1] (16 mg/kg IP); 350 in assay [1] (32 mg/kg IP); 313 in assay [1] (64 mg/kg IP); 178 in [1] (128 mg/kg IP). Further, the “% Intestine Traversed Mean ± SEM” value was found to be 73.5 ± 3.5% in assay [4] (first experiment, 16 mg/kg IP); 77.7 ± 2.3% in assay [4] (first experiment, 32 mg/kg IP); 81.7 ± 2.8% in assay [4] (setting [9]); 77.9 ± 2.9% in assay [4] (second experiment, 4 mg/kg IP); 78.3 ± 1.7% in assay [4] (second experiment, 8 mg/kg IP); 70.4 ± 3.7% in assay [4] (second experiment, 16 mg/kg IP). The “% Intestine Traversed Mean ± SEM” value in assay [4] (second experiment, 32 mg/kg IP) amounted to 65.6 ± 4.5%. The “% Inhibition” value in assay [4] (first experiment, 16 mg/kg IP) stood at 9.8%; in assay [4] (first experiment, 32 mg/kg IP), 4.7%; in assay [4] (first experiment, 64 mg/kg IP), 0%; in assay [4] (second experiment, 16 mg/kg IP), 5.8%; in assay [4] (second experiment, 32 mg/kg IP) it was 12.2%; in assay [5] (16 mg/kg IP), 46%. The “% Inhibition” value stood at 71% in [5] (32 mg/kg IP) and 82% in [5] (64 mg/kg IP). The “Expulsion Time Mean ± SEM” value was 19.0 ± 2.8 in assay [5] (16 mg/kg IP), 23.7 ± 2.6 in assay [5] (32 mg/kg IP) and 26.4 ± 2.4 in assay [5] (64 mg/kg IP).
Regarding `O=C(O)c1cc(/N=N/c2ccc(S(=O)(=O)Nc3ccccn3)cc2)ccc1O` [sulfasalazine], in assay [7], the “activity in DSS colitis model” value is “have been shown to have activity in this model”.
